Laboratory results from patent publication US9279810B2, “Cell binding peptides for diagnosis and detection” (Affinergy, LLC, priority 2013, dated 2016).

Tests used:
blood leukocytes = experiment: Capture of leukocytes from urine with biotinylated cell binding peptide on streptavidin magnetic beads (same test, obscuring cells); assay type: cell-based; conditions: cells captured on peptide-magnetic bead conjugate from 5 ml human urine; leukocyte:J82 mixture 12.5:1 to 20:1; unit not given
Protocol: (§1) A green fluorescent leukocyte preparation was prepared as follows. Red blood cells in 2 ml anti-coagulated human blood were lysed by the addition of 30 ml of a hypotonic medium and incubation for 10 min at room temperature. Intact cells and debris were recovered by centrifugation at 300×g. Pelleted material was resuspended with PBS/0.5% BSA/2 mM EDTA and filtered through a 100 micron nylon filter. Leukocytes (3×10^6) were labeled with 5 μM Cell Tracker Green CMFDA (LIFE TECHNOLOGIES/MOLECULAR PROBES) in EMEM growth medium without serum for 45 min. Excess dye was removed by centrifugation at 500×g for 5 min and washing with PBS/0.5% BSA/2 mM EDTA and cells were exposed to 10% serum containing medium for 45 min to allow dye conversion.
Red fluorescent J82 cells were prepared as follows: An 80% confluent culture of J82 bladder cancer cells was labeled with 5 μM Cell Tracker Red CMPTX (LIFE SCIENCES/MOLECULAR PROBES) in EMEM growth medium without serum for 90 min. Excess dye was removed by washing the flask with EMEM/10% FBS and cells were exposed to 10% serum containing medium for 1.5 h for dye conversion. The cells were then washed with PBS and released from the flask with 0.05% trypsin. Cells were recovered and trypsin removed by centrifugation at 500×g followed by washing in PBS/0.5% BSA/2 mM EDTA. […]

J82 bladder cancer cells = experiment: Capture of cultured J82 tumor cells from urine with biotinylated cell binding peptide on streptavidin magnetic beads; assay type: cell-based, human; conditions: for J82 bladder tumor cells: cells captured on peptide-magnetic bead conjugate from 5 ml human urine, leukocyte:J82 mixture 12.5:1 to 20:1, unit not given; for Enrichment Factor: ratio J82:total leukocytes after capture divided by ratio before capture, urine
Protocol: as §1
Red fluorescent J82 cells were prepared as follows: An 80% confluent culture of J82 bladder cancer cells was labeled with 5 μM Cell Tracker Red CMPTX (LIFE SCIENCES/MOLECULAR PROBES) in EMEM growth medium without serum for 90 min. Excess dye was removed by washing the flask with EMEM/10% FBS and cells were exposed to 10% serum containing medium for 1.5 h for dye conversion. The cells were then washed with PBS and released from the flask with 0.05% trypsin. Cells were recovered and trypsin removed by centrifugation at 500×g followed by washing in PBS/0.5% BSA/2 mM EDTA.
Biotinylated peptides SEQ ID NO: 1 and SEQ ID NO: 10 were synthesized with a C-terminal Peg10 group attached to a lysine as described in Example 1. The biotinylated peptides were conjugated to magnetic microbeads (MILTENYI) by incubating 400 μl of bead suspension in 20 μM peptide for 30 min on ice with occasional mixing. Unbound peptide was removed by binding the beads to a Miltenyi MS column placed in a magnetic field. Beads were washed with PBS/0.5% BSA/2 mM EDTA and peptide conjugated beads released by removing the Miltenyi MS column from the magnetic field. A mixture of green fluorescent leukocytes and red fluorescent J82 bladder cancer cells was variously prepared in ratios between 12.5:1 and 20:1. The cell mixture (725,000 cells total) was added to 5 ml human urine and then 250 μl of peptide-magnetic bead conjugate. The whole was incubated for 45 min at room temperature with rotation.
To capture cells the peptide-magnetic bead cell mixture was passed over a Miltenyi MS column pre-equilibrated with PBS/0.5% BSA/2 mM EDTA and held in a magnetic field. Unbound cells were washed out with PBS/0.5% BSA/2 mM EDTA and retained. Cells bound to the peptide-magnetic bead conjugate were released from the Miltenyi MS column by removing the column from the magnetic field. […] The data in FIG. 3 and Table 2 below show a 463-fold to 588-fold enrichment of J82 cells from leukocytes in urine. […]

[1] = test system: primary cells from voided urine; experiment: Capture of primary cells from voided urine on peptide coated glass slide; assay type: cell-based, human; conditions: for Number of captured basal and intermediate cells/peptide coated area / Number of captured superficial and squamous cells/peptide coated area: cells from 40 mL voided urine, entire peptide coated area 2.67 cm^2, H&E, bright field; for peptide selectivity: preferential capture of cell type: primary cells from voided urine
Protocol: (§2) Peptides were synthesized in a conjugatable format for unidirectional conjugation to glass. Peptides were attached to glass through a covalent bond formed between the lysine on C-terminus of the peptide and an N-Hydroxysuccinimide (NHS) group on the glass. Briefly, microscope glass slides functionalized with NHS groups ((MICROSURFACES, Inc)) were incubated with peptide solution at 200 μM for 2 hours at 30° C., ˜75% RH. At the end of the incubation the slides were washed 3 times for 5 min in washing buffer (1×PBS, 0.05% Tween 20) and subsequently deactivated in deactivation solution (MICROSURFACES, Inc) for 30 min at 30° C., ˜75% RH to deactivate any remaining uncoupled NHS groups. Eventually slides were washed twice for 5 min in washing buffer prior to being blocked for 1 hour in blocking buffer (PBS, 0.5% BSA, 2 mM EDTA).
(§3) Microscope glass slides with discrete areas functionalized with peptide were used as diagnostic cell capture devices as shown in FIG. 1. Cells used were cultured cell lines established from human transitional bladder carcinomas (J82, ATCC HTB-1 and T24, ATCC HTB-4), cells isolated from voided urine of healthy donors (primary cells), a cultured cell line established from human thyroid carcinoma (SW579) or white blood cells (WBC) obtained from human whole blood by lysing red blood cells.
(§4) Cell suspension was prepared in cell capture buffer (PBS, 0.5% BSA, 2 mM EDTA, 0-200 mM glucose) and applied directly to a peptide functionalized slide in which peptide was attached to a glass slide using the N-Hydroxysuccinimide chemistry described in Example 4 with a pipetting device. The cells were incubated on the slide for 15 min and then drained by tipping the slide to the side. The slides were washed by dipping in wash buffer (PBS, 0.5% BSA, 2 mM EDTA) to wash away unbound cells. Slides were fixed in paraformaldehyde, dried, stained (H&E) and cover slipped for microscopic examination in a bright field. For fluorescent microscopy the cells were labeled with fluorescent dyes (CELLTRACKER Green or Red; LIFE TECHNOLOGIES, INC) prior to applying to the slide. Following the 15 min incubation the slides were washed, fixed, dried and mounted with a fluorescent mounting medium for microscopic examination in a dark field.
(§5) Selective capture of urothelial cells, J82, was achieved from a mixture of J82 and white blood cells (WBC) on a peptide coated glass slide using cell binding peptides of the present disclosure. In this Example, peptides were synthesized with a C-terminal Peg10 spacer followed by a lysine and conjugated to the glass slide according to Example 4.
In another experiment, primary cells from voided urine were selectively captured onto peptide coated glass slides. Specifically, cells were isolated from 40 mL of voided urine from a second morning void and applied to a glass slide with a discrete area coated with peptide. Cells were visualized by H&E staining and counted in a bright field. Results are presented in Table 3 below as a cell number per the entire peptide coated area (2.67 cm^2). […] The sample adequacy criterion for urine cytology is at least 15 well visualized basal or intermediate cells^1.

[2] = test system: SW579 thyroid cancer cells; experiment: Selective capture of SW579 thyroid cells from a mixture of SW579 and WBC on peptide coated glass slide; assay type: cell-based, human; conditions: WBC:SW579 1 to 1; compared with SEQ ID NO: 4 and SEQ ID NO: 1
Protocol: as §2
Microscope glass slides with discrete areas functionalized with peptide were used as diagnostic cell capture devices as shown in FIG. 1. […]
In a first experiment peptides SEQ ID NO: 1, SEQ ID NO: 2, SEQ ID NO: 3 and SEQ ID NO: 4 were tested and peptide SEQ ID NO: 10 was used as a positive control. […] The slide was washed of unbound cells and captured cells were counted under a fluorescent microscope. […]

[3] = test system: J82 urothelial cancer cells; experiment: Selective capture of J82 urothelial cells from a mixture of J82 and white blood cells on peptide coated glass slide; assay type: cell-based, human
Protocol: as §2, §3, §4, §5
The cell binding peptides used in a first experiment were SEQ ID NO: 1, SEQ ID NO: 2, SEQ ID NO: 3, and SEQ ID NO: 4. […] Human WBC and J82 cells were labeled with different CELLTRACKER dyes, mixed at a 1 to 1 ratio and applied to a slide with discrete areas coated with peptides. The slide was washed of unbound cells and captured cells were counted under a fluorescent microscope. Data are presented in FIGS. 5A & 5B as cell number per microscope field at 100× magnification averaged from 10 fields. The slide area not coated with peptide was used as a negative control. Preferential capture of J82 urothelial cells was observed leading to depletion of WBC up to 85%. […] Thus the degree of WBC removal from the diagnostic sample can be controlled by using a peptide most suitable for the application. For example, in some circumstances the presence of some WBCs on the slide may provide valuable clinical information.
In another experiment, selective capture of urothelial cancer cells, J82, was achieved from a mixture of J82 and WBC on a peptide coated glass slide using peptides SEQ ID NO: 5, SEQ ID NO: 6, and SEQ ID NO: 7. […] Human WBC and J82 cells were labeled with different CELLTRACKER dyes, mixed at 7 to 1 ratio and applied to a slide with discrete areas coated with peptides. The slide was washed of unbound cells and captured cells were counted under a fluorescent microscope. […]

thyroid cancer cells = experiment: Selective capture of thyroid cancer cells spiked with whole blood on peptide coated slide; assay type: cell-based, human; conditions: H&E staining, 200x
Protocol: as §3
as §4, with “Following the 15 min incubation the slides were washed, fixed, dried and mounted with a fluorescent mounting medium for microscopic examination in a dark field.” left out

[4] = test system: J82 urothelial cancer cells; experiment: Selective capture of J82 urothelial cancer cells from voided urine spiked with whole blood on peptide coated slide; assay type: cell-based, human; conditions: voided urine spiked with whole blood and J82 cells; H&E staining, 100x
Protocol: as §3
as §4, with “The” for “Cell suspension was prepared in cell capture buffer (PBS, 0.5% BSA, 2 mM EDTA, 0-200 mM glucose) and applied directly to a peptide functionalized slide in which peptide was attached to a glass slide using the N-Hydroxysuccinimide chemistry described in Example 4 with a pipetting device. The”
In this Example, peptides were synthesized with a C-terminal Peg10 spacer followed by a lysine and conjugated to the glass slide according to Example 4.
In another experiment urothelial cancer cells from voided urine were selectively captured using peptide SEQ ID NO: 5. […]

[5] = J82 (100, 500 or 1000 cells) and WBC mixed 1:72, 15 min incubation
[6] = WBC:J82 1 to 1, compared with SEQ ID NO: 1 and SEQ ID NO: 4
[7] = WBC:J82 7 to 1, compared with SEQ ID NO: 7

## SFCPSNHDCIDWFIRSR [SEQ ID NO: 10, used as positive control in the thyroid test]
Blood leukocytes
  Total Blood Leukocytes: 0.09
J82 bladder cancer cells
  J82 bladder tumor cells: 53.6
  Enrichment Factor: 588

## SSFGSDCSPWGCEWVPVSR [SEQ ID NO: 4]
[1]
  Number of captured basal and intermediate cells/peptide coated area: 21 cells/peptide coated area
  Number of captured superficial and squamous cells/peptide coated area: 6 cells/peptide coated area
  peptide selectivity: preferential capture of cell type: deep urothelial cells

## SSFSNYDSPWGPNWSVISR [SEQ ID NO: 1]
Blood leukocytes
  Total Blood Leukocytes: 0.1
J82 bladder cancer cells
  J82 bladder tumor cells: 48.2
  Enrichment Factor: 463

## SSIEDLPKDWPLFGWMSSR [SEQ ID NO: 2]
[2]
  capture selectivity (WBC to SW579 end ratio): more selective
[3]; [5]
  depletion of WBCs from the input material: 86%
  reduction in WBCs relative to urothelial cells: 7.6 fold
[3]; [6]
  capture selectivity (WBC to J82 end ratio): more selective

## SSLESVKEPWGPGWIPVSR [SEQ ID NO: 3]
Thyroid cancer cells
  selective capture of thyroid cancer cells, slide washed: Blood cells are washed away and thyroid cells retained
[2]
  capture selectivity (WBC to SW579 end ratio): more selective
[3]; [6]
  capture selectivity (WBC to J82 end ratio): more selective

## SSVALSFQAVPYDFHSSR [SEQ ID NO: 5]
[4]
  selective capture of urothelial cancer cells, slide washed: Blood cells are washed away and urothelial cells retained
[1]
  Number of captured basal and intermediate cells/peptide coated area: 40 cells/peptide coated area
  Number of captured superficial and squamous cells/peptide coated area: 19 cells/peptide coated area
  peptide selectivity: preferential capture of cell type: deep urothelial cells
[3]; [7]
  capture selectivity (WBC to J82 end ratio): more selective

## SSVQHAYQAWPGLGAYTSR [SEQ ID NO: 6]
[1]
  Number of captured basal and intermediate cells/peptide coated area: 5 cells/peptide coated area
  Number of captured superficial and squamous cells/peptide coated area: 35 cells/peptide coated area
  peptide selectivity: preferential capture of cell type: superficial and squamous cells
[3]; [7]
  capture selectivity (WBC to J82 end ratio): more selective
